Values of other authors as cited in patent publication US20090317456A1, “USE OF ONCOLYTIC VIRUSES AND ANTIANGIOGENIC AGENTS IN THE TREATMENT OF CANCER” (priority 2006, published 2009).

Columns and labels:
[1] = system: metastatic colorectal cancer; settings: bevacizumab added to FOLFOX or FOLFIRI; prolonged from 12 months without
[2] = system: VEGFR tyrosine kinases, including VEGFR-3; settings: all known VEGFR tyrosine kinases

Compound	median survival [1] [months]	inhibition of VEGFR tyrosine kinases [2]	inhibition of PDGFR (PDGFR)
bevacizumab: humanized anti-VEGF monoclonal antibody (Avastin, Genentech)	20		
Clc1ccc(Nc2nnc(Cc3ccncc3)c3ccccc23)cc1 [PTK 787/ZK 222584]		lower nanomolar range	nanomolar range
